Like-named read-outs stand apart in the source and are kept apart here.
Key:
FGFR3 = target: T1, FGFR3 (Homo sapiens, UniProt P22607); test: PanQinase kinase panel: FGFR3; format: biochemical; conditions: read-out: INHIBITORY EFFECT @ 1 uM: FGFR3
T1 construct: purchased Reaction Biology Europe GmbH
Experimental: (§1) Screening procedures were performed in accordance with the company's on-line protocol [accessed on-line Mar.
(§2) For each kinase, the median value of the cpm of three wells was defined as “low control” (n=3). This value reflects unspecific binding of radioactivity to the plate in the absence of a protein kinase but in the presence of the substrate. Additionally, for each kinase the median value of the cpm of three other wells was taken as the “high control,” i.e. full activity in the absence of any inhibitor (n=3). The difference between high and low control of each enzyme was taken as 100% activity.
(§3) As part of the data evaluation the low control of each kinase was subtracted from the high control value as well as from their corresponding “compound values”. The residual activity (in %) for each compound well was calculated by using the following formula: Res. Activity (%)=100×[(signal of compound−low control)/(high control−low control)].

TEC = target: T2, TEC (Homo sapiens, UniProt P42680); test: PanQinase kinase panel: TEC; format: biochemical; conditions: for inhibition at 1 µM: read-out: INHIBITORY EFFECT @ 1 uM: TEC
T2 construct: purchased Reaction Biology Europe GmbH
T2 sequence (P42680 1-631): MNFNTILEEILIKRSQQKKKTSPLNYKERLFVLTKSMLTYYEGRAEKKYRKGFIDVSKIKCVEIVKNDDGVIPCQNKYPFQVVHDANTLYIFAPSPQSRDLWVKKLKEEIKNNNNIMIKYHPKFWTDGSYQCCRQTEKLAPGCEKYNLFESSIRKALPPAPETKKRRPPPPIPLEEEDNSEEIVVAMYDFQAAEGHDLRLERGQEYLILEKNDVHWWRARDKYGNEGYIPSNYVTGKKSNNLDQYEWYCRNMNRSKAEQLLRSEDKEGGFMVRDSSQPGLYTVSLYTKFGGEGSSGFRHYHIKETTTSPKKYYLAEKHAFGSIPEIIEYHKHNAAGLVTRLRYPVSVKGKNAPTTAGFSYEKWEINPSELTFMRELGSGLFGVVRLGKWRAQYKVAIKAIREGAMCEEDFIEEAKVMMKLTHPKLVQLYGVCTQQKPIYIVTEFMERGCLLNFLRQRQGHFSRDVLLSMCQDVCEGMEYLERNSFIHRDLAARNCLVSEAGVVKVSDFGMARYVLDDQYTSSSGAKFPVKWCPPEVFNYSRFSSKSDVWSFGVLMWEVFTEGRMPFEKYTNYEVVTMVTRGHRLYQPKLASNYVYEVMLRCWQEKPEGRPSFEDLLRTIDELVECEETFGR
Experimental: as §1, §2
As part of the data evaluation the low control of each kinase was subtracted from the high control value as well as from their corresponding “compound values”.

RAF1 YDYD = target: T3, RAF1 YDYD (Homo sapiens, UniProt P04049, Y340D/Y341D); test: PanQinase kinase panel: RAF1 YDYD; format: biochemical; conditions: read-out: INHIBITORY EFFECT @ 1 uM: RAF1 YDYD
T3 construct: purchased Reaction Biology Europe GmbH
Experimental: as §1, §2, §3

MWCL-1 = test: Apoptosis assay (annexin V flow cytometry) in Waldenstrom's Macroglobulinemia cells; format: cell-based, human; conditions: for IC50: Homo sapiens, read-out: Apoptosis IC50 (μM) in single-mutant WM Cell Lines (MWCL-1); for promoting apoptosis in WM cells (MWCL-1) compared with ibrutinib or zanubrutinib alone: in words
Experimental: Waldenström's Macroglobulinemia cells (MWCL-1) and the bone marrow stromal cells (BMSCs; HS-27A) were used in this study. The MWCL-1 is a lymphoplasmacytic lymphoma established from the bone marrow aspirate of a patient diagnosed with Waldenström's Macroglobulinemia. It was provided by Dr Stephen M. Ansell (MAYO file number 2021-121; 200 First Street SW, Rochester, Minnesota). This cell line was cultured in RPMI-1640 (Fisher Scientific) containing 10% fetal bovine serum (FBS) (Sigma Aldrich, St Louis, MO), 100U/ml of Penicillin-Streptomycin (Gibco™, ThermoFisher Scientific). The HS-27A bone marrow stromal cells were obtained from ATCC. They were maintained in RPMI 1640 (Fisher Scientific) supplemented with 100U/ml of Penicillin-Streptomycin (Gibco™, ThermoFisher Scientific) and 10% FBS (TakaraBio). Cells were cultured in a 37° C. tissue culture CO2 incubator.
For studies with compounds using a co-culture system of MWCL-1 and BMSCs, BMSCs were cultured in a 96-, 48- or 24-well plates and cultured until the 90% confluence was reached. […] After 1 hour, the MWCL-Icells were added to the BMSC to create a co-culture system. The cells were co-incubated for 72 hours. After incubation time, cell viability, apoptosis, and IgM release were measured.
For studying the effect of compounds on inducing apoptosis of Waldenström Macroglobulinemia cells (MWCL-1). Cells were washed with PBS, resuspended in Annexin V binding buffer (Biolegend), and stained with Alexa Fluor 647 annexin V (Biolegend), Propidium Iodide (BD Pharmigen), and CD45 antibody (Biolegend) for 15 minutes at RT and analyzed by flow cytometry. Data were collected on an CytoFLEX S Flow Cytometer (Beckman Coulter) and analysed with FCS Express Software (De Novo Software). Annexin V positive cells were considered apoptotic.

T1 sequence (P22607 23-806): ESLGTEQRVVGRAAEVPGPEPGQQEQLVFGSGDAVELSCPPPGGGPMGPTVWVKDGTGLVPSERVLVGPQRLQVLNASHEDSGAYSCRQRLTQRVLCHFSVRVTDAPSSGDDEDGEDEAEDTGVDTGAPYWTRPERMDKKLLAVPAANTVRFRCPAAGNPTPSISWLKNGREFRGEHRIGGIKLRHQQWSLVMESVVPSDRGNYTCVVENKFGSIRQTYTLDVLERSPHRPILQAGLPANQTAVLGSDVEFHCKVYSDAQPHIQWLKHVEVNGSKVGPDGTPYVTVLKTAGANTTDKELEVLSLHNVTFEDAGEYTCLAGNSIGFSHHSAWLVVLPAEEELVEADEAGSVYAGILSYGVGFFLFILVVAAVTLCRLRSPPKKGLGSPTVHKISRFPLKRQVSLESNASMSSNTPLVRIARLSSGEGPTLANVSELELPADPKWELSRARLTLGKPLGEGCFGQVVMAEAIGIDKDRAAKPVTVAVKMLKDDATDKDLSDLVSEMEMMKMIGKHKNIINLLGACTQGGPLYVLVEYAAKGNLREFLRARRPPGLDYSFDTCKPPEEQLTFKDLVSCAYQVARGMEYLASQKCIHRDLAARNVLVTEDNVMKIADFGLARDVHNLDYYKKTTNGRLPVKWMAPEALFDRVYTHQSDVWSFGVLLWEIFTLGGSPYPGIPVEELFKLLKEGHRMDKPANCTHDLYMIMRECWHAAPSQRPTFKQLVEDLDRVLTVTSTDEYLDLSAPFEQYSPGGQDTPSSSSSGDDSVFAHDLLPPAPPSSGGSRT
T3 sequence (P04049 307-648 Y340D/Y341D limits assumed): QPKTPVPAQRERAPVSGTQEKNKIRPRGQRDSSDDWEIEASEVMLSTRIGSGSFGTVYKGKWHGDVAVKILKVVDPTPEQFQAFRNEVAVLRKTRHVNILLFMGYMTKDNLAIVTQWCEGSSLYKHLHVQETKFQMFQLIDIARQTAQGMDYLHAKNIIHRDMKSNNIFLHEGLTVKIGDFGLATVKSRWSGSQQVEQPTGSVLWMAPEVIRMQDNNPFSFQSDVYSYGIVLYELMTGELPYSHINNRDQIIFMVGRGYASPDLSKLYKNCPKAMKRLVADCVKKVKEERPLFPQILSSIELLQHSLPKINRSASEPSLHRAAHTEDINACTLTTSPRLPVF

Row | SMILES | inhibition at 1 µM (FGFR3) | inhibition at 1 µM (TEC) | inhibition at 1 µM (RAF1 YDYD) | IC50 (MWCL-1; class symbol) | promoting apoptosis in WM cells (MWCL-1) compared with ibrutinib or zanubrutinib alone (MWCL-1) | INHIBITORY EFFECT @ 1 uM: TEC (TEC; 1 uM) | IC50 (MWCL-1; numeric)
1 | O=C(c1ccc(Oc2ccccc2)cc1Cl)c1c[nH]c2ncnc(N[C@@H]3CC[C@@H](CO)OC3)c12 [ARQ-531, (2-chloro-4-phenoxyphenyl) (4-(((3R,6S)-6-(hydroxymethyl)tetrahydro-2H-pyran-3-yl)amino)-7H-pyrrolo[2,3-d]pyrimidin-5-yl) methanone] | 50 to 69% | 90 to 100% | 70 to 89% | – | – | – | –
2 | Cc1cccnc1[C@H]1CCC[C@@H](c2ncccc2C)N1CCN1CCN(C(=O)c2ccc(-c3cc4c(-c5cccc(NC(=O)c6ccccc6)c5C)ncnc4[nH]3)cc2)CC1 [Compound I-10, N-(3-(6-(4-(4-(2-((2R,6S)-2,6-bis(3-methylpyridin-2-yl)piperidin-1-yl)ethyl)piperazine-1-carbonyl)phenyl)-7H-pyrrolo[2,3-d]pyrimidin-4-yl)-2-methylphenyl)benzamide] | < 50% | 70 to 89% | < 50% | 0.1 to 2 µM | more effective in promoting apoptosis | – | –
3 | Cc1cc(-c2ccnc(Nc3cnn(CCN4[C@@H](c5ncccc5C)CCC[C@H]4c4ncccc4C)c3)n2)ccc1CNC(=O)N1CC(OC(C)C)C1 [Compound I-11] | – | – | – | 0.1 to 2 µM | more effective in promoting apoptosis | – | –
4 | COc1ccc(F)cc1C(=O)NCc1ccc(-c2nn([C@@H](C)C(F)(F)F)c(N)c2C(N)=O)cc1 [LOXO-305, pirtobrutinib] | < 50% | 90 to 100% | < 50% | – | – | – | –
5 | C=CC(=O)N1CCC([C@@H]2CCNc3c(C(N)=O)c(-c4ccc(Oc5ccccc5)cc4)nn32)CC1 [Zanubrutinib, (7S)-2-(4-phenoxyphenyl)-7-(1-prop-2-enoylpiperidin-4-yl)-4,5,6,7-tetrahydropyrazolo[1,5-a]pyrimidine-3-carboxamide] | < 50% | – | < 50% | – | – | ++++ (90%-100% Inhibition at 1 uM) | 17.7 µM

— patent US20250326753A1, “DUAL CXCR4-BTK INHIBITORS” (X4 Pharmaceuticals, Inc., priority 2022, published 2025)
